For orientation: IC50 means the point on the concentration scale where inhibition reaches its midpoint. The low end stands for greater potency in that assay, the high end for weaker potency in that assay.

The target in this test is T1, Human MTHFD2 (Homo sapiens, UniProt P13995).
T1 construct: residues 36-350 in Uniport ID P13995; His6 (N); made in house; host or cells: E. coli
T1 sequence (P13995 36-350): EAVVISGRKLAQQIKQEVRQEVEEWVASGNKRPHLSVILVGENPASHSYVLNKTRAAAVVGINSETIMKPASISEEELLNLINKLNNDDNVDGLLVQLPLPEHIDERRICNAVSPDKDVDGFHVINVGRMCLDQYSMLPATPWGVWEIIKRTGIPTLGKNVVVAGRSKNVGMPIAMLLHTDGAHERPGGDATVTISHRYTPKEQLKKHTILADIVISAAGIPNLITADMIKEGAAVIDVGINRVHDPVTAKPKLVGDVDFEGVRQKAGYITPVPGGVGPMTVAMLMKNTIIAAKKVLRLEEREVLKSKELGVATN
As to the kind of experiment: MTHFD2 Activity Assay (dehydrogenase activity, diaphorase/resazurin coupled fluorescence). The format is biochemical. As to conditions: inhibitory activity (IC50 and/or binding constant); 0.2 nM MTHFD2, 11 concentrations. Put shortly: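 Resorufin fluorescence (ex 525, em 598 nm) reports NADH formed by the dehydrogenase via diaphorase coupling. Enzyme (0.2 nM, residues 36-350, N-His6) sat with compound 15 min before 70 μM CH2-THF and 1 mM NAD+ started a 30 min reaction. IC50s come from 4-parameter fits over 11 concentrations.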
(Resazurin is reduced to fluorescent resorufin, in cell work by metabolically active cells.)
For `Cn1c(NCc2ccncc2)nc2c1c(=O)n(Cc1ccc(Cl)c(Cl)c1)c(=O)n2C` [Example 118, 1-(3,4-dichlorobenzyl)-3,7-dimethyl-8-(pyridin-4-ylmethylamino)-1H-purine-2,6(3H,7H)-dione], the IC50 is 1000 to 5000 nM. The figure for `Cn1cnc2c(=O)n(Cc3ccc(Cl)c(Cl)c3)c(=O)n(C)c21` [Example 253] is over 10000 nM; for `Cn1c(CN)nc2c1c(=O)n(Cc1cc3c(Cl)cccc3[nH]1)c(=O)n2C` [Example 358, 8-(aminomethyl)-1-[(4-chloro-1H-indol-2-yl)methyl]-3,7-dimethyl-purine-2,6-dione] it is 10 to 1000 nM. To `Cn1c(NCCCO)nc2c1c(=O)n(Cc1ccc(Cl)c(C(F)(F)F)c1)c(=O)n2C` [Example 67, 1-{[4-chloro-3-(trifluoromethyl)phenyl]methyl}-8-[(3-hydroxypropyl)amino]-3,7-dimethyl-2,3,6,7-tetrahydro-1H-purine-2,6-dione] belongs 10 to 1000 nM. To `Cn1c(Nc2cc[nH]c(=O)n2)nc2c1c(=O)n(Cc1ccc(Cl)c(Cl)c1)c(=O)n2C` [Example 140, 1-(3,4-dichlorobenzyl)-3,7-dimethyl-8-(2-oxo-1,2-dihydropyrimidin-4-ylamino)-1H-purine-2,6(3H,7H)-dione] belongs 10 to 1000 nM. Turning to `C[C@@H](CCO)Nc1nc2c(c(=O)n(Cc3ccc(Cl)cc3)c(=O)n2C)n1C` [Example 31, 1-[(4-chlorophenyl)methyl]-8-{[(2S)-4-hydroxybutan-2-yl]amino}-3,7-dimethyl-2,3,6,7-tetrahydro-1H-purine-2,6-dione], the IC50 fell in the range of 1000 to 5000 nM. The molecule `Cn1c(N[C@H]2CCCC[C@@H]2O)nc2c1c(=O)n(Cc1ccc(Cl)c(Cl)c1)c(=O)n2C` (racemic) [Example 91, (±)-1-[(3,4-dichlorophenyl)methyl]-8-{[(trans)-2-hydroxycyclohexyl]amino}-3,7-dimethyl-2,3,6,7-tetrahydro-1H-purine-2,6-dione±] yielded an IC50 of 10 to 1000 nM.

The molecule `Cn1c(N[C@H]2CC[C@@H](O)C2)nc2c1c(=O)n(Cc1ccc(C(F)(F)F)cc1)c(=O)n2C` (single isomer, unassigned) [Example 133, 8-((1S,3R)-3-hydroxycyclopentylamino)-3,7-dimethyl-1-(4-(trifluoromethyl)benzyl)-1H-purine-2,6(3H,7H)-dione or 8-((1R,3S)-3-hydroxycyclopentylamino)-3,7-dimethyl-1-(4-(trifluoromethyl)benzyl)-1H-purine-2,6(3H,7H)-dione] showed an IC50 of 1000 to 5000 nM. The molecule `CC(O)C1CCC(Nc2nc3c(c(=O)n(Cc4ccc(Cl)c(Cl)c4)c(=O)n3C)n2C)C1` (stereo not shown) [Example 265, 1-(3,4-dichlorobenzyl)-8-(3-(1-hydroxyethyl)cyclopentylamino)-3,7-dimethyl-1H-purine-2,6(3H,7H)-dione] had an IC50 of 10 to 1000 nM.

Consider `Cn1c(Nc2ccncc2)nc2c1c(=O)n(Cc1ccc3ccccc3c1Cl)c(=O)n2C` [Example 375, 1-((1-chloronaphthalen-2-yl)methyl)-3,7-dimethyl-8-(pyridin-4-ylamino)-1H-purine-2,6(3H,7H)-dione], for which the IC50 fell in the range of 10 to 1000 nM.

With `Cn1c(NS(C)(=O)=O)nc2c1c(=O)n(Cc1cc3c(Cl)cccc3[nH]1)c(=O)n2C` [Example 336, N-[1-[(4-chloro-1H-indol-2-yl)methyl]-3,7-dimethyl-2,6-dioxo-purin-8-yl]methanesulfonamide], the IC50 was 10 to 1000 nM. On to `Cn1c(Nc2cccnn2)nc2c1c(=O)n(Cc1cc3cc(Cl)ccc3[nH]1)c(=O)n2C` [Example 200, 1-((5-chloro-1H-indol-2-yl)methyl)-3,7-dimethyl-8-(pyridazin-3-ylamino)-1H-purine-2,6(3H,7H)-dione], for which the IC50 was in the range of 1000 to 5000 nM. Consider `Cn1c(Nc2ccncc2)nc2c1c(=O)n(Cc1cc3cccc(Cl)c3[nH]1)c(=O)n2C` [Example 373, 1-[(7-chloro-1H-indol-2-yl)methyl]-3,7-dimethyl-8-(4-pyridylamino)purine-2,6-dione], for which the IC50 is 10 to 1000 nM. The figure for `Cn1c(C(N)Cc2ccccc2)nc2c1c(=O)n(Cc1cc3c(Cl)cccc3[nH]1)c(=O)n2C` (stereo not shown) [Example 450, 8-(1-amino-2-phenylethyl)-1-((4-chloro-1H-indol-2-yl)methyl)-3,7-dimethyl-1H-purine-2,6(3H,7H)-dione] is 10 to 1000 nM. The figure for `Cc1ccc(Nc2nc3c(c(=O)n(Cc4cc5c(Cl)cccc5[nH]4)c(=O)n3C)n2C)nc1CCC(=O)O` [Example 377, 3-(6-(1-((4-chloro-1H-indol-2-yl)methyl)-3,7-dimethyl-2,6-dioxo-2,3,6,7-tetrahydro-1H-purin-8-ylamino)-3-methylpyridin-2-yl)propanoic acid] is 10 to 1000 nM; for `Cn1c(C(N)C2CCOCC2)nc2c1c(=O)n(Cc1[nH]c3cccc(Cl)c3c1Cl)c(=O)n2C` (stereo not shown) [Example 455, 8-[amino(tetrahydropyran-4-yl)methyl]-1-[(3,4-dichloro-1H-indol-2-yl)methyl]-3,7-dimethyl-purine-2,6-dione] it is 10 to 1000 nM. The figure for `Cn1c(NCC(F)(F)F)nc2c1c(=O)n(Cc1ccc(Cl)c(Cl)c1)c(=O)n2C` [Example 278, 1-[(3,4-dichlorophenyl)methyl]-3,7-dimethyl-8-(2,2,2-trifluoroethylamino)purine-2,6-dione] is 10 to 1000 nM; for `Cn1c(Cn2c(=O)c3c(nc(CCN4CCOCC4)n3C)n(C)c2=O)cc2cc(Cl)ccc21` [Example 225, 1-((5-chloro-1-methyl-1H-indol-2-yl)methyl)-3,7-dimethyl-8-(2-morpholinoethyl)-1H-purine-2,6(3H,7H)-dione] it is 10 to 1000 nM; for `Cn1c(Nc2ccnc([C@H]3C[C@@H]3C(=O)O)c2)nc2c1c(=O)n(Cc1cc3c(Cl)cccc3[nH]1)c(=O)n2C` (single isomer, unassigned) [Example 363, (1S,2S)-2-(4-((1-((4-chloro-1H-indol-2-yl)methyl)-3,7-dimethyl-2,6-dioxo-2,3,6,7-tetrahydro-1H-purin-8-yl)amino)pyridin-2-yl)cyclopropanecarboxylic acid or (1R,2R)-2-(4-((1-((4-chloro-1H-indol-2-yl)methyl)-3,7-dimethyl-2,6-dioxo-2,3,6,7-tetrahydro-1H-purin-8-yl)amino)pyridin-2-yl)cyclopropanecarboxylic acid] it is 10 to 1000 nM.

`CC(CN)c1nc2c(c(=O)n(Cc3cc4c(Cl)cccc4[nH]3)c(=O)n2C)n1C` (stereo not shown) [Example 485, 8-(1-aminopropan-2-yl)-1-((4-chloro-1H-indol-2-yl)methyl)-3,7-dimethyl-1H-purine-2,6(3H,7H)-dione] returned an IC50 of 10 to 1000 nM.

Molecule `Cn1c(Nc2cccc([C@H]3C[C@@H]3C(=O)O)n2)nc2c1c(=O)n(Cc1ccc(Cl)c(Cl)c1)c(=O)n2C` (racemic) [Example 299, (±)-trans-2-(6-((1-(3,4-dichlorobenzyl)-3,7-dimethyl-2,6-dioxo-2,3,6,7-tetrahydro-1H-purin-8-yl)amino)pyridin-2-yl)cyclopropanecarboxylic acid] came in with an IC50 of 10 to 1000 nM.

`Cn1c(Nc2ccnc(C3CC(C(=O)O)C3)c2)nc2c1c(=O)n(Cc1ccc(Cl)c(Cl)c1)c(=O)n2C` (stereo not shown) [Example 309, 3-(4-(1-(3,4-dichlorobenzyl)-3,7-dimethyl-2,6-dioxo-2,3,6,7-tetrahydro-1H-purin-8-ylamino)pyridin-2-yl)cyclobutanecarboxylic acid] returned an IC50 of 10 to 1000 nM. The figure for `Cn1c(Nc2ccnc(CCC(N)=O)n2)nc2c1c(=O)n(Cc1cc3c(Cl)cccc3[nH]1)c(=O)n2C` [Example 378, 3-(4-(1-((4-chloro-1H-indol-2-yl)methyl)-3,7-dimethyl-2,6-dioxo-2,3,6,7-tetrahydro-1H-purin-8-ylamino)pyrimidin-2-yl)propanamide] is 10 to 1000 nM; for `Cn1c(NC[C@@H]2CCCO2)nc2c1c(=O)n(Cc1ccc(Cl)c(Cl)c1)c(=O)n2C` [Example 104, (S)-1-(3,4-dichlorobenzyl)-3,7-dimethyl-8-((tetrahydrofuran-2-yl)methylamino)-1H-purine-2,6(3H,7H)-dione] it is 1000 to 5000 nM; for `Cn1c(NCCCO)nc2c1c(=O)n(Cc1ccc3sccc3c1)c(=O)n2C` [Example 52, 1-(1-benzothiophen-5-ylmethyl)-8-[(3-hydroxypropyl)amino]-3,7-dimethyl-2,3,6,7-tetrahydro-1H-purine-2,6-dione] it is 10 to 1000 nM.

In turn, `Cn1c(N[C@@H]2CCCNC2)nc2c1c(=O)n(Cc1ccc(Cl)c(Cl)c1)c(=O)n2C` [Example 69, 1-[(3,4-dichlorophenyl)methyl]-3,7-dimethyl-8-{[(3R)-piperidin-3-yl]amino}-2,3,6,7-tetrahydro-1H-purine-2,6-dione] returned an IC50 of 10 to 1000 nM. To `Cn1c(Nc2ccc3c(c2)C(CC(=O)O)CC3)nc2c1c(=O)n(Cc1ccc(Cl)c(Cl)c1)c(=O)n2C` (stereo not shown) [Example 314, 2-(6-((1-(3,4-dichlorobenzyl)-3,7-dimethyl-2,6-dioxo-2,3,6,7-tetrahydro-1H-purin-8-yl)amino)-2,3-dihydro-1H-inden-1-yl)acetic acid] belongs 10 to 1000 nM; to `Cn1cnc2c1c(=O)n(Cc1ccc(Cl)c(Cl)c1)c(=O)n2C` [Example 152, 1-(3,4-dichlorobenzyl)-3,7-dimethyl-1H-purine-2,6(3H,7H)-dione], 1000 to 5000 nM.
